Patent publication US20220241409A1, “WATER SOLUBLE ADJUVANT AND COMPOSITION CONTAINING SAME” (Sumitomo Dainippon Pharma Co., Ltd., priority 2019, published 2022)

What was measured:
[1] = target: T1, human TLR7 (Homo sapiens, UniProt Q9NYK1); assay: Human TLR7 reporter gene assay (Test 1); format: cell-based; conditions: half-maximal SEAP induction, TLR7/NF-κB/SEAPorter HEK293 cell line, overnight 37° C., 0.1% DMSO
T1 construct: expresses full-length human TLR7 and secretory alkaline phosphatase (SEAP) reporter gene; host or cells: TLR7/NF-κB/SEAPorter HEK293 cell line
T1 sequence (Q9NYK1 27-1049): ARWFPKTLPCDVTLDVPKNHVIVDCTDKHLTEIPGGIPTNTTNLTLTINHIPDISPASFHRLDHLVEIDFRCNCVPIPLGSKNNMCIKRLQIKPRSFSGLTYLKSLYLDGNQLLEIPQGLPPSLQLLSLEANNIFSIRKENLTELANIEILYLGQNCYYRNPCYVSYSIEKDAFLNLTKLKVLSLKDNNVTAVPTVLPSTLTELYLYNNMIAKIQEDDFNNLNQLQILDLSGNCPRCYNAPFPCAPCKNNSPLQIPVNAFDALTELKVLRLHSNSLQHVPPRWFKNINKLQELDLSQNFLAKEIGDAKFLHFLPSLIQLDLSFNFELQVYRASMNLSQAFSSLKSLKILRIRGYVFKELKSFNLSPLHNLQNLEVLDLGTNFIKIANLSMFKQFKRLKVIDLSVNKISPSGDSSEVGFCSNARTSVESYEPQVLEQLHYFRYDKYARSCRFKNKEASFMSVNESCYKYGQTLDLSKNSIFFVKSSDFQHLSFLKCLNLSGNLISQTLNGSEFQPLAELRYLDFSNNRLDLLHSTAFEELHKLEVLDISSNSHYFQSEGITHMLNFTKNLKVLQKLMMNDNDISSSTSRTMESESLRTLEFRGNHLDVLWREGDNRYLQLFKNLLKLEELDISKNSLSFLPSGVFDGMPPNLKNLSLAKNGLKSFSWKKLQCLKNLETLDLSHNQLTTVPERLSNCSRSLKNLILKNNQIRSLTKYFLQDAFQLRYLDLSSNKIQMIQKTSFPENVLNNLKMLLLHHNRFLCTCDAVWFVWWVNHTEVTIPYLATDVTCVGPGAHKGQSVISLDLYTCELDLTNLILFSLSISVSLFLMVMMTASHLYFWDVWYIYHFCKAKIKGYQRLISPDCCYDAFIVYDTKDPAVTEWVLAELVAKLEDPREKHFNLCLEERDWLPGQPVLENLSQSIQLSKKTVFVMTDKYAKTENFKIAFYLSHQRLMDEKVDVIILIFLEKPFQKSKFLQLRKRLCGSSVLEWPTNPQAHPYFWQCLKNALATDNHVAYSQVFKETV
From the text: TLR7/NF-κB/SEAPorter™ HEK293 cell line (Imgenex Corporation) is a stably co-transfected cell line which expresses full-length human TLR7 and secretory alkaline phosphatase (SEAP) reporter gene under the transcriptional regulation of an NF-κB response element. The TLR7 expression of the cell line has been already tested by flow cytometry. Transfectants with stable expression were selected using the antibiotic blasticidin and Geneticin. TLR signaling leads to the translocation of NF-κB and the activation of the promoter results in expression of the SEAP gene. TLR7-specific activation was assessed by determining the level of SEAP produced following overnight incubation of the cells at 37° C. with each compound prepared in Examples and Reference examples in the presence of 0.1% (v/v) dimethylsulfoxide (DMSO). The human TLR7 activity for the present compound was assessed by human TLR7 reporter gene assay, and the results are shown in Tables 6 and 7 as the compound concentration which produced half of the maximal level of SEAP induction (EC50).

[2] = target: T2, mouse TLR7 (Mus musculus, UniProt P58681); assay: Mouse TLR7 reporter gene assay (Test 2); format: cell-based; conditions: half-maximal SEAP induction, HEK-Blue mTLR7 cell line, overnight 37° C., 0.1% DMSO
T2 construct: expresses full-length mouse TLR7 and secretory SEAP reporter gene; host or cells: HEK-Blue mTLR7 cell line
T2 sequence (P58681 27-1050): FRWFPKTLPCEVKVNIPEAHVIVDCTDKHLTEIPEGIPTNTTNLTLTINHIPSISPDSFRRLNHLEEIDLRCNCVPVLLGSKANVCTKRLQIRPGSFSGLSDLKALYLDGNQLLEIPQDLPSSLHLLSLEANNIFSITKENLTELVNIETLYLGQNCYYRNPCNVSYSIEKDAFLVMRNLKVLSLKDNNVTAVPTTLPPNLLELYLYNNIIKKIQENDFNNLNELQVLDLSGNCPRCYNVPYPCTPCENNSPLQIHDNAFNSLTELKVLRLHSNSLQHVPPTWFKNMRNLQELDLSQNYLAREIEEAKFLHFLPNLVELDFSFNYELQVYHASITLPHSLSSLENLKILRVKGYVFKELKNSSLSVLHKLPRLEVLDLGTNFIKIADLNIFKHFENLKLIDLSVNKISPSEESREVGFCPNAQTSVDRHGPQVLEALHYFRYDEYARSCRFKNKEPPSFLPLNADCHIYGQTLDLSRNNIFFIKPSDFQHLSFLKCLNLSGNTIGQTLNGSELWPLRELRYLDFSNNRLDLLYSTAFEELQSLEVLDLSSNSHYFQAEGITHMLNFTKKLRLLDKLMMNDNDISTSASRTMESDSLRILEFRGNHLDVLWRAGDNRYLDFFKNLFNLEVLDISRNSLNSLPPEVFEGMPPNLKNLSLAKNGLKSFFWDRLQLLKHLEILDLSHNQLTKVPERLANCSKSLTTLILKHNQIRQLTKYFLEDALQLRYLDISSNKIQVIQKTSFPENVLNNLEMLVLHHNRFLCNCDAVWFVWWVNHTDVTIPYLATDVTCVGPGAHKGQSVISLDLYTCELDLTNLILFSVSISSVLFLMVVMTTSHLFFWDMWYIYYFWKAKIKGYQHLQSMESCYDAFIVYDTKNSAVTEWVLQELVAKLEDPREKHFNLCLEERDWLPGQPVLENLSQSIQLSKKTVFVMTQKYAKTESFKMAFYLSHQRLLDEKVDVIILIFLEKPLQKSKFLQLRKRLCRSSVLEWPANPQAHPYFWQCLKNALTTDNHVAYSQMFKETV
From the text: HEK-Blue™ mTLR7 cell line (Invivogen) is a stably co-transfected cell line which expresses full-length mouse TLR7 and secretory SEAP reporter gene under the transcriptional regulation of an NF-κB response element. The TLR7 expression of the cell line has been already tested by RT-PCR. Transfectants with stable expression were selected using the antibiotic blasticidin and Zeocin. TLR signaling leads to the translocation of NF-κB and the activation of the promoter results in expression of the SEAP gene. TLR7-specific activation was assessed by determining the level of SEAP produced following overnight incubation of the cells at 37° C. with each compound prepared in Examples and Reference examples in the presence of 0.1% (v/v) DMSO. The mouse TLR7 activity for the present compound was assessed by mouse TLR7 reporter gene assay, and the results are shown in Tables 8 and 9 as the compound concentration which produced half of the maximal level of SEAP induction (EC50).

[3] = system: HLA-A*02:01 transgenic mouse; assay: In vivo adjuvant activity, CTL induction with vaccine b, IFNγ ELISPOT (Test 18); conditions: 0.04 nmol per body added to vaccine b versus no compound; twice
Method: The in vivo adjuvant activity of the compound of Example 6 was evaluated in the following procedure. To vaccine b like Test 17 was added the compound prepared in Example 6 to prepare a vaccine. The vaccine was administered to a HLA-A*02:01 transgenic mouse, and the adjuvant activity of the vaccine was evaluated by the method of testing antigen-specific CTL induction.
Specifically, Compound of formula 4 and Peptide SEQ ID No. 3 were dissolved in DMSO, and then diluted with water for injection to concentrations of Compound of formula 4 of 3 mg/mL and Peptide SEQ ID No. 3 of 2.25 mg/mL. The diluted peptide solution was mixed and emulsified with an equal volume of Montanide ISA 51 VG to prepare vaccine b. Vaccine b was injected to mice intradermally at the tail base area in an amount for administering 300 μg of Compound of formula 4 per body and 225 μg of Peptide SEQ ID No. 3 per body. Or, in the step of preparing vaccine b, the compound prepared in Example 6 was added to the diluted peptide solution to prepare a vaccine, and the prepared vaccine was injected to mice intradermally at the tail base area in an amount for administering 300 μg of Compound of formula 4 per body, 225 μg of Peptide SEQ ID No. 3 per body, and 0.04 nmol of the compound prepared in Example 6 per body. […] Then, after removal of the supernatant from the wells, stained spots on the ELISPOT plate were counted.

[4] = system: HLA-A*02:01 transgenic mouse; assay: In vivo adjuvant activity, CTL induction with vaccine b, IFNγ ELISPOT (Test 17); conditions: 0.04 nmol or 0.4 nmol per body added to vaccine b versus no compound; twice
Method: The in vivo adjuvant activity of the compounds prepared in Examples 7, 8, and 9 was evaluated in the following procedure. To vaccine b comprising Compound of formula 4 prepared in Reference example 9 and Peptide SEQ ID No. 3 prepared in Reference example 3 with Montanide ISA51 VG was added the compound prepared in Example 7, 8, or 9 to prepare each vaccine. The vaccine was administered to a HLA-A*02:01 transgenic mouse, and the adjuvant activity of each vaccine was evaluated by the method of testing antigen-specific CTL induction.
Specifically, Compound of formula 4 and Peptide SEQ ID No. 3 were dissolved in DMSO, and then diluted with water for injection to concentrations of Compound of formula 4 of 3 mg/mL and Peptide SEQ ID No. 3 of 2.25 mg/mL. The diluted peptide solution was mixed and emulsified with an equal volume of Montanide ISA 51 VG to prepare vaccine b. Vaccine b was injected to mice intradermally at the tail base area in an amount for administering 300 μg of Compound of formula 4 per body and 225 μg of Peptide SEQ ID No. 3 per body. […] Then, after removal of the supernatant from the wells, stained spots on the ELISPOT plate were counted.

Row | Structure (SMILES) | EC50 ([1]; Table 6, Examples) | CTL counts responsive to Peptide SEQ ID No. 5 [4] | also measured
1 | CCCCOc1nc(N)c2[nH]c(=O)n(Cc3ccc(CN(C)CCOCCOCCOCCOCCO)cn3)c2n1 [Example 1, 6-amino-2-butoxy-9-{[5-(16-hydroxy-2-methyl-5,8,11,14-tetraoxa-2-azahexadecan-1-yl)pyridin-2-yl]methyl}-7,9-dihydro-8H-purin-8-one.trifluoroacetate] | 150 nM |  | EC50 ([2]; Table 8, Examples): 1450 nM
2 | COCCOc1nc(N)c2[nH]c(=O)n(Cc3ccc(CN(C)CCOCCOCCOCCOCCO)cc3)c2n1 [Example 4, 6-amino-9-{[4-(16-hydroxy-2-methyl-5,8,11,14-tetraoxa-2-azahexadecan-1-yl)phenyl]methyl}-2-(2-methoxyethoxy)-7,9-dihydro-8H-purin-8-one] | 5300 nM |  | 
3 | CCCCOc1nc(N)c2[nH]c(=O)n(Cc3ccc(CN(CCOCCOCCOCCO)CCOCCOCCOCCO)nc3)c2n1 [Example 6, 6-Amino-2-butoxy-9-({6-[13-hydroxy-2-(2-{2-[2-(2-hydroxyethoxy)ethoxy]ethoxy}ethyl)-5,8,11-trioxa-2-azatridecan-1-yl]pyridin-3-yl}methyl)-7,9-dihydro-8H-purin-8-one] |  |  | CTL counts responsive to Peptide SEQ ID No. 5 [3]: more
4 | CCCCOc1nc(N)c2[nH]c(=O)n(Cc3ccc(CN(C)CCOCCOCCOCCOCCOCCOCCOCCOCCOCCO)nc3)c2n1 [Example 7, 6-Amino-2-butoxy-9-{[6-(31-hydroxy-2-methyl-5,8,11,14,17,20,23,26,29-nonaoxa-2-azahentriacontan-1-yl)pyridin-3-yl]methyl}-7,9-dihydro-8H-purin-8-one] |  | more | 
5 | CCCCOc1nc(N)c2[nH]c(=O)n(Cc3ccc(CN(C)CCOCCOCCOCCOCCOCCOCCOCCOCCOCCOCCOCCOCCOCCOCCOCCOCCOCCOCCOCCOCCOCCOCCOCCO)nc3)c2n1 [Example 8, 6-Amino-2-butoxy-9-{[6-(73-hydroxy-2-methyl-5,8,11,14,17,20,23,26,29,32,35,38,41,44,47,50,53,56,59,62,65,68,71-tricosaoxa-2-azatriheptacontan-1-yl)pyridin-3-yl]methyl}-7,9-dihydro-8H-purin-8-one] |  | more | 
6 | CCCCOc1nc(N)c2[nH]c(=O)n(Cc3ccc(CNC)cn3)c2n1 [compound 13, reference compound] |  |  | EC50 ([1]; Table 7, Reference examples): 82 nM; EC50 ([2]; Table 9, Reference examples): 279 nM
